Literature values in patent US20070167418A1 (priority 2004, published 2007).
Read-outs that look alike come from different tables or passages of the source.

Columns and labels:
ED = conditions: oral
men with ED [1] = conditions: 100 mg; placebo twenty-two percent
[2] = in vivo
[3] = not given; remark: listed apart in the source
men with ED [4] = conditions: intraurethral suppositories

For COC(=O)[C@@H]1[C@H]2C[C@H]3c4[nH]c5ccccc5c4CCN3C[C@@H]2CC[C@@H]1O [Yohimbine], the “efficacy in the treatment of ED” value (ED) is listed as “limited efficacy”.
For CCCc1nn(C)c2c(=O)[nH]c(-c3cc(S(=O)(=O)N4CCN(C)CC4)ccc3OCC)nc12 [sildenafil], the “men achieving successful intercourse” value (men with ED [1]) is given as “sixty-nine” and the half-life [2] is given as “four to five”.
For CC(C)NCC(O)COc1ccc(CC(N)=O)cc1 (stereo not shown) [atenolol], the “men reporting ED after beginning treatment” value (50 mg, men informed of its sexual adverse effects) is listed as 31% and the “men reporting ED after beginning treatment” value (similarly treated, men blinded as to the study drug) is listed as 3%.
For CN1CC(=O)N2[C@H](c3ccc4c(c3)OCO4)c3[nH]c4ccccc4c3C[C@@H]2C1=O [tadalafil], the half-life [2] is given as “approximately eighteen”.
For CCCc1nc(C)c2c(=O)[nH]c(-c3cc(S(=O)(=O)N4CCN(CC)CC4)ccc3OCC)nn12 [vardenafil], the half-life [2] is given as “four to five” and the “time of peak serum concentrations” value [2] is given as “approximately one”.
For C[C@]12CC[C@H]3[C@@H](CCC4=CC(=O)CC[C@@]43C)[C@@H]1CC[C@@H]2O [testosterone], the “restoring physiological testosterone levels” value ([3]; gels) is listed as “high efficacy”, the men with erythrocytosis ([3]; gels or patches) is listed as 5% and the “men with gynecomastia, peripheral edema, exacerbation or de novo sleep apnea, acne and mild weight gain” value ([3]; in vivo) is listed as “less than 2%”. For the same compound, the men with erythrocytosis ([3]; injections) was ≤ 50%, the hepatotoxicity risk ([3]; oral agents available in the United States) was “significant risk of hepatotoxity” and the liver toxicity ([3]; transdermal or intramuscular preparations) was “does not seem to be associated”. The “men with local skin reactions” value ([3]; transdermal, patches) was ≤ 40%.
For CCCCC[C@H](O)/C=C/[C@H]1[C@H](O)CC(=O)[C@@H]1CCCCCCC(=O)O [alprostadil], the “efficacy compared with penile injection” value (men with ED [4]) is listed as “less effective”.
